From patent US3953293A, “Process for the preparation of xylostasin” (Takeda Chemical Industries, Ltd., priority 1972, dated 1976)
≈ marks a conversion by molar mass, not a printed value.

What was measured:
Bacillus brevis IFO 3331 = test: Minimal inhibitory concentration by the agar dilution method; format: cell-based; details: Brevibacillus brevis, IFO3331, bouillon agar
Text: (§1) Minimal inhibitory concentrations by the
(§2) The media used for the test are bouillon agar for the common bacteria and glycerin bouillon agar for acid fast bacteria.

Bacillus cereus IFO 3466 = test: as above; format: cell-based; details: IFO3466, bouillon agar
Text: as §1, §2

[1] = system: Bacillus subtilis PCI 219; test: as above; format: cell-based; details: PCI219, bouillon agar
Text: as §1, §2

[2] = system: Escherichia coli IFO 3044; test: as above; format: cell-based; details: IFO3044, bouillon agar
Text: as §1, §2

[3] = system: Mycobacterium avium (Neomycin-resistant); test: as above; format: cell-based; details: read-out: Minimal inhibitory concentration
Text: as §1, §2

[4] = system: Mycobacterium avium (Streptomycin-resistant); test: as above; format: cell-based; details: read-out: Minimal inhibitory concentration
Text: as §1, §2

[5] = system: Mycobacterium avium IFO 3153; test: as above; format: cell-based; details: IFO3153, glycerin bouillon agar
Text: as §1, §2

[6] = system: Mycobacterium phlei IFO 3158; test: as above; format: cell-based; details: Mycolicibacterium phlei, IFO3158, glycerin bouillon agar
Text: as §1, §2

[7] = system: Mycobacterium smegmatis IFO 3083; test: as above; format: cell-based; details: Mycolicibacterium smegmatis, IFO3083, glycerin bouillon agar
Text: as §1, §2

[8] = system: Proteus vulgaris IFO 3045; test: as above; format: cell-based; details: IFO3045, bouillon agar
Text: as §1, §2

[9] = system: Pseudomonas aeruginosa IFO 3080; test: as above; format: cell-based; details: IFO3080, bouillon agar
Text: as §1, §2

Sarcina lutea IFO 3232 = test: as above; format: cell-based; details: Micrococcus luteus, IFO3232, bouillon agar
Text: as §1, §2

Shigella flexneri EW-10 = test: as above; format: cell-based; details: EW10, bouillon agar
Text: as §1, §2

[10] = system: Staphylococcus aureus FDA 209P; test: as above; format: cell-based; details: FDA209P, bouillon agar
Text: as §1, §2

[11] = Acute toxicity by intravenous injection into mice; details: mouse, in vivo, free base
Description: The acute toxicity of xylostasin was examined by intravenous injection into mice. The LD50 value for the free base was approximately 1,000 mg/kg.

Escherichia coli 0-111 = test: Anti-infection test in mice; format: in vivo; details: mice infected with Escherichia coli 0-111; single subcutaneous dose of 10 mg/kg immediately after infection

## NC[C@H]1O[C@H](O[C@H]2[C@H](O[C@@H]3O[C@H](CO)[C@H](O)[C@H]3O)[C@@H](O)[C@H](N)C[C@@H]2N)[C@H](N)[C@@H](O)[C@@H]1O [xylostasin, O-β-D-xylofuranosyl-(1 → 5)-O-[α-2,6-diamino-2,6-dideoxy-D-glucopyranosyl-(1 → 4)]-2-deoxystreptamine]
Bacillus brevis IFO 3331
  MIC: 25 µg/mL (≈ 55 µM)
Bacillus cereus IFO 3466
  MIC: 50 µg/mL (≈ 110 µM)
[1]
  MIC: 3.12 µg/mL (≈ 6.88 µM)
[2]
  MIC: 6.25 µg/mL (≈ 13.8 µM)
[3]
  MIC: > 50 µg/mL
[4]
  MIC: 3.12 µg/mL (≈ 6.88 µM)
[5]
  MIC: 1.6 µg/mL (≈ 3.52 µM)
[6]
  MIC: 1.6 µg/mL (≈ 3.52 µM)
[7]
  MIC: 1.6 µg/mL (≈ 3.52 µM)
[8]
  MIC: 50 µg/mL (≈ 110 µM)
[9]
  MIC: > 50 µg/mL
Sarcina lutea IFO 3232
  MIC: 25 µg/mL (≈ 55 µM)
Shigella flexneri EW-10
  MIC: 12.5 µg/mL (≈ 27.5 µM)
[10]
  MIC: 6.25 µg/mL (≈ 13.8 µM)
[11]
  LD50: ~1000 mg/kg
Escherichia coli 0-111
  death of the mice: completely prevented
